Measurements as given in US6673791B2, “Non-nucleoside reverse transcriptase inhibitors” (Boehringer Ingelheim (Canada) Ltd., priority 2001, dated 2004).
Read-outs that look alike come from different tables or passages of the source.

Tests used:
[1] = target: T1, K103N/Y181C double mutant RT (HIV-1 RT) (Human immunodeficiency virus type 1 group M subtype B, UniProt P03366, K702N/Y780C); experiment: biochemical
T1 construct: mutations that occur in the reverse transcriptase segment of the pol gene
From the text: (§1) Based upon testing of these compounds, as described below, it is known that they inhibit the RNA-dependent DNA polymerase activity of HIV-1 RT. […] Utilising the Reverse Transcriptase (RT) Assay described below, compounds can be tested for their ability to inhibit the RNA-dependent DNA polymerase activity of HIV-1 RT. Certain specific compounds described in the Examples which appear below, were so tested. The results of this testing appear in Table 4 as IC50 (nM) and Table 5 as EC50 (nM).
(§2) Reverse TranscriptASE (RT) Assays
(§3) The assays are as described in WO 01/96338A1, the contents of which are hereby incorporated herein. The results are listed in Tables 8 as IC50(nM) and EC50(nM).

[2] = target: T2, V106A mutant RT (HIV-1 RT) (Human immunodeficiency virus type 1 group M subtype B, UniProt P03366, V705A); experiment: biochemical
T2 construct: mutations that occur in the reverse transcriptase segment of the pol gene
From the text: as §1, §2, §3

[3] = target: T3, WT RT (HIV-1 RT) (Human immunodeficiency virus type 1 group M subtype B, UniProt P03366); experiment: biochemical
T3 construct: mutations that occur in the reverse transcriptase segment of the pol gene
From the text: as §1, §2, §3

[4] = target: T4, Y188L mutant RT (HIV-1 RT) (Human immunodeficiency virus type 1 group M subtype B, UniProt P03366, Y787L); experiment: biochemical
T4 construct: mutations that occur in the reverse transcriptase segment of the pol gene
From the text: as §1, §2, §3

[5] = tested on: WT RT (HIV-1 wild type strain); experiment: EC50 assay, WT RT strain; assay type: cell-based
From the text: as §2, §3

[6] = tested on: K103N/Y181C (HIV-1 double mutant strain); experiment: EC50 assay, K103N/Y181C strain; assay type: cell-based
From the text: as §2, §3

[7] = Human immunodeficiency virus 1, read-out: EC50 WT RT (nM)
[8] = Human immunodeficiency virus 1, read-out: EC50 K103N/Y181C (nM), K103N/Y181C double mutant

| SMILES | IC50 [1] [nM] | IC50 ([2]; IC50 V106A (nM)) [nM] | IC50 [3] [nM] | IC50 ([4]; IC50 Y188L (nM)) [nM] | EC50 [5, 7] [nM] | EC50 [6, 8] [nM] | IC50 ([1]; K103N/Y181C double mutant RT, read-out: IC50 K103N/Y181C) [nM] | IC50 ([2]; read-out: IC50 V106A) [nM] | IC50 ([3]; wild type RT, read-out: IC50 WT RT) [nM] | IC50 ([4]; read-out: IC50 Y188L) [nM] | EC50 ([5]; wild type, read-out: EC50 WT RT) [nM] | EC50 ([6]; K103N/Y181C double mutant, read-out: EC50 K103N/Y181C) [nM] | IC50 ([1]; read-out: IC50 K103N/Y181C, K103N/Y181C double mutant RT) [nM] | IC50 ([3]; read-out: IC50 WT RT, wild type RT) [nM] | EC50 ([5]; read-out: EC50 WT RT, wild type) [nM] | EC50 ([6]; read-out: EC50 K103N/Y181C, K103N/Y181C double mutant) [nM] |
| --- | --- | --- | --- | --- | --- | --- | --- | --- | --- | --- | --- | --- | --- | --- | --- | --- |
| CCN1c2ncc(CCOc3ccc(/C=C/C(=O)O)c4ccccc34)cc2C(=O)N(C)c2ccc(C)nc21 [Entry 1033] | 100 to 1000 | 100 to 1000 | < 100 | 100 to 1000 | < 100 | < 100 |  |  |  |  |  |  |  |  |  |  |
| CCN1c2ncc(CCOc3ccc(/C=C/C(=O)O)c4ccccc34)cc2C(=O)Nc2c(C)cc(F)nc21 [Entry 1034] | 100 to 1000 | < 100 | < 100 | > 1000 | < 100 | < 100 |  |  |  |  |  |  |  |  |  |  |
| CCN1c2ncc(CCOc3ccc(/C=C(\C)C(=O)O)c4ccccc34)cc2C(=O)N(C)c2cccnc21 [Entry 1035] | 100 to 1000 | > 1000 | < 100 | > 1000 | < 100 | < 100 |  |  |  |  |  |  |  |  |  |  |
| CCN1c2ncc(CCOc3ccc(/C=C(\C)C(=O)O)c4ccccc34)cc2C(=O)N(C)c2ccc(Cl)nc21 [Entry 1036] | 100 to 1000 | 100 to 1000 | < 100 | > 1000 | < 100 | < 100 |  |  |  |  |  |  |  |  |  |  |
| CCN1c2ncc(CCOc3ccc(/C=C(\C)C(=O)O)c4ccccc34)cc2C(=O)N(C)c2ccc(F)nc21 [Entry 1037] | 100 to 1000 | > 1000 | < 100 | > 1000 | < 100 | < 100 |  |  |  |  |  |  |  |  |  |  |
| CCN1c2ncc(CCOc3ccc(/C=C(\C)C(=O)O)c4ccccc34)cc2C(=O)N(C)c2ccc(C)nc21 [Entry 1038] | 100 to 1000 | > 1000 | < 100 | > 1000 | < 100 | < 100 |  |  |  |  |  |  |  |  |  |  |
| CCN1c2ncc(CCOc3ccc(/C=C(\C)C(=O)O)c4ccccc34)cc2C(=O)Nc2c(C)cc(Cl)nc21 [Entry 1040] | 100 to 1000 | 100 to 1000 | < 100 | > 1000 | < 100 | 100 to 1000 |  |  |  |  |  |  |  |  |  |  |
| CCN1c2ncc(CCOc3ccc(CC(C)C(=O)O)c4ccccc34)cc2C(=O)N(C)c2cccnc21 (stereo not drawn) [Entry 1042] | 100 to 1000 | > 1000 | < 100 | > 1000 | < 100 | < 100 |  |  |  |  |  |  |  |  |  |  |
| CCN1c2ncc(CCOc3ccc(CC(C)C(=O)O)c4ccccc34)cc2C(=O)N(C)c2ccc(Cl)nc21 (stereo not drawn) [Entry 1044] | 100 to 1000 | > 1000 | < 100 | > 1000 | < 100 | < 100 |  |  |  |  |  |  |  |  |  |  |
| CCN1c2ncc(CCOc3ccc(/C(C)=C/C(=O)O)c4ccccc34)cc2C(=O)N(C)c2cccnc21 [Entry 1048] | 100 to 1000 | > 1000 | < 100 | > 1000 | < 100 | < 100 |  |  |  |  |  |  |  |  |  |  |
| C=C(CC(=O)O)c1ccc(OCCc2cnc3c(c2)C(=O)N(C)c2cccnc2N3CC)c2ccccc12 [Entry 1049] | 100 to 1000 | > 1000 | < 100 | > 1000 | < 100 | 100 to 1000 |  |  |  |  |  |  |  |  |  |  |
| CCN1c2ncc(CCOc3ccc(C4CC4C(=O)O)c4ccccc34)cc2C(=O)N(C)c2ccc(F)nc21 (stereo not drawn) [Entry 1050] | 100 to 1000 | 100 to 1000 | < 100 | 100 to 1000 | < 100 | 100 to 1000 |  |  |  |  |  |  |  |  |  |  |
| CCN1c2ncc(CCOc3ccc(C(C)CC(=O)O)c4ccccc34)cc2C(=O)N(C)c2cccnc21 (stereo not drawn) [Entry 1051] | 100 to 1000 | > 1000 | < 100 | > 1000 | < 100 | < 100 |  |  |  |  |  |  |  |  |  |  |
| CCN1c2ncc(CCOc3ccc(NC(=O)CCC(=O)O)c4ccccc34)cc2C(=O)N(C)c2cccnc21 [Entry 2006] |  |  |  |  |  |  | 100 to 1000 | > 1000 | < 100 | > 1000 | < 100 | 100 to 1000 |  |  |  |  |
| CCN1c2ncc(CCOc3cccc4c(S(=O)(=O)NCC(=O)O)cccc34)cc2C(=O)N(C)c2cccnc21 [Entry 2008] | < 100 | 100 to 1000 | < 100 | 100 to 1000 | 100 to 1000 | 100 to 1000 |  |  |  |  |  |  |  |  |  |  |
| CCN1c2ncc(CCOc3ccc(/C=C/C(=O)O)c4ccccc34)cc2C(=O)N(C)c2ccc(F)nc21 [Entry 2014] |  |  |  | > 1000 |  |  |  | 100 to 1000 |  |  |  |  | 100 to 1000 | < 100 | < 100 | 100 to 1000 |
